What was measured:
E. coli IH3080 (K1:O18) = experiment: Well diffusion growth inhibition on LB agar plates (direct antibacterial activity); assay type: cell-based, Escherichia coli
Experimental: Peptides synthesized in Example 1, all carrying at least two (2) but not more than three (3) positive charges, were studied for their ability to inhibit the growth of E. coli. This was tested employing LB agar (LB Agar Lennox, Difco, BD, Sparks, Md., U.S.A) plates. The indicator organism E. coli IH3080 (K1:O18) was an encapsulated strain originally isolated from a neonate suffering from meningitis (Vaara et al. 1984) and obtained from National Public Health Institute, Helsinki, Finland.
(§1) From an overnight-grown culture of IH3080 on LB agar, a suspension of approx. 10^8 cells/ml was prepared in 0.9% NaCl. Aliquots of this suspension were then pipetted on the agar plates and the plates were gently shaken to spread the suspension evenly on the entire surface of the plate. Thereafter, the unabsorbed part of the suspension was removed by using a Pasteur pipette. After the surface had dried, small wells (diameter, 2 mm) were drilled on the plates (five wells per plate) by using a sterile sharp-edged narrow metal tube, single-use pipette tip, and vacuum suction. […] Controls included 0.9% NaCl solution without the compound to be tested. The plates were then incubated for 18 h at 37° C. whereafter the diameters of growth inhibition zones around each well were measured; the diameter of the well itself was not reduced. Finally, the diameters were converted to surface areas of growth inhibition (in square mm).

[1] = tested on: Acinetobacter baumannii ATCC 19606; experiment: as above; assay type: cell-based; conditions: A. baumannii ATCC 19606
Experimental: (§2) From an overnight-grown culture of IH3080 on LB agar, a suspension of approx. 10^8 cells/ml was prepared in 0.9% NaCl. Aliquots of this suspension were then pipetted on the agar plates and the plates were gently shaken to spread the suspension evenly on the entire surface of the plate. Thereafter, the unabsorbed part of the suspension was removed by using a Pasteur pipette. After the surface had dried, small wells (diameter, 2 mm) were drilled on the plates (five wells per plate) by using a sterile sharp-edged narrow metal tube, single-use pipette tip, and vacuum suction. Samples (4 μl and 10 μl) of the peptide solution in 0.9% NaCl (at concentrations of 1 μg/ml and 0.1 μg/ml) were then pipetted to the wells and the sample fluids were allowed to absorb. Controls included 0.9% NaCl solution without the compound to be tested. The plates were then incubated for 18 h at 37° C. whereafter the diameters of growth inhibition zones around each well were measured; the diameter of the well itself was not reduced. Finally, the diameters were converted to surface areas of growth inhibition (in square mm).
(§3) Direct antibacterial activity of twelve NAB compounds against Acinetobacter baumannii ATCC 19606 and Pseudomonas aeruginosa ATCC 27853 was tested by using the susceptibility determination method described in Example 2. Five compounds (NAB7062, NAB734, NAB737, NAB739, and NAB740) had notable activity against A. baumannii. […] The antibacterial activity of NAB739 and NAB740 were as strong as or even stronger than that of polymyxin B.

[2] = tested on: Pseudomonas aeruginosa ATCC 27853; experiment: as above; assay type: cell-based; conditions: Ps. aeruginosa ATCC 27853
Experimental: as §2, §3

E. coli IH3080 = experiment: Sensitization to rifampin: well diffusion growth inhibition on LB plates containing rifampin; assay type: cell-based, Escherichia coli; conditions: 4 μg of compound
Experimental: as §1

A. baumannii ATCC 19606 = experiment: as above; assay type: cell-based, Acinetobacter baumannii; conditions: 4 μg of compound
[3] = tested on: Ps. aeruginosa ATCC 27853; experiment: as above; assay type: cell-based, Pseudomonas aeruginosa; conditions: 4 μg of compound

Row | Substance | Antibacterial activity (growth inhibition area around a well) (E. coli IH3080 (K1:O18); 4 μg of compound per well) | Antibacterial activity (growth inhibition area around a well) (E. coli IH3080 (K1:O18); 10 μg of compound per well) | Antibacterial activity (growth inhibition area around a well) ([1]; 4 μg per well) | Antibacterial activity (growth inhibition area around a well) ([1]; 10 μg per well) | Antibacterial activity (growth inhibition area around a well) ([2]; 4 μg per well) | Antibacterial activity (growth inhibition area around a well) ([2]; 10 μg per well) | Antibacterial activity in the presence of rifampin (growth inhibition area around a well) (E. coli IH3080; rifampin 0 μg/ml) | Antibacterial activity in the presence of rifampin (growth inhibition area around a well) (E. coli IH3080; rifampin 0.1 μg/ml) | Antibacterial activity in the presence of rifampin (growth inhibition area around a well) (E. coli IH3080; rifampin 1.0 μg/ml) | Antibacterial activity in the presence of rifampin (growth inhibition area around a well) (A. baumannii ATCC 19606; rifampin 0 μg/ml) | Antibacterial activity in the presence of rifampin (growth inhibition area around a well) (A. baumannii ATCC 19606; rifampin 0.1 μg/ml) | Antibacterial activity in the presence of rifampin (growth inhibition area around a well) (A. baumannii ATCC 19606; rifampin 0.3 μg/ml) | Antibacterial activity in the presence of rifampin (growth inhibition area around a well) ([3]; rifampin 0 μg/ml) | Antibacterial activity in the presence of rifampin (growth inhibition area around a well) ([3]; rifampin 0.1 μg/ml) | Antibacterial activity in the presence of rifampin (growth inhibition area around a well) ([3]; rifampin 0.3 μg/ml)
1 | OA-Thr-DThr-cy[Dab-Dab-DPhe-Thr-Dab-Dab-Thr-] [NAB 737] | 133 square millimeters | 201 square millimeters | 38 square millimeters | 79 square millimeters | 0 square millimeters | 28 square millimeters | 133 square millimeters | 177 square millimeters | 201 square millimeters | 38 square millimeters | 201 square millimeters | 283 square millimeters | 0 square millimeters | 20 square millimeters | 20 square millimeters
2 | OA-Thr-Dab-cy[Dab-Dab-DPhe-Leu-Abu-Dab-Thr-] [NAB 716] | 13 square millimeters | 64 square millimeters | 0 square millimeters | 0 square millimeters | 0 square millimeters | 0 square millimeters | 13 square millimeters | 133 square millimeters | 165 square millimeters | 0 square millimeters | 0 square millimeters | 64 square millimeters | 0 square millimeters | 0 square millimeters | 0 square millimeters
3 | OA-Thr-Dab-cy[Dab-Dab-DPhe-Leu-Dab-Abu-Thr-] [NAB 717] | 0 square millimeters | 0 square millimeters | 0 square millimeters | 0 square millimeters | 0 square millimeters | 0 square millimeters | 0 square millimeters | 71 square millimeters | 95 square millimeters | 0 square millimeters | 0 square millimeters | 50 square millimeters | 0 square millimeters | 0 square millimeters | 0 square millimeters
